Test results published in ChEMBL document CHEMBL4507265 (2021).

Tests used:
[1] = biological target: Phosphatidylinositol 4,5-bisphosphate 3-kinase catalytic subunit gamma isoform (Homo sapiens) (UniProt P48736); details: Compound concentration 1000.0 nM
[2] = test system: Proto-oncogene tyrosine-protein kinase receptor Ret (Homo sapiens), P07949 [V804M]; details: Compound concentration 1000.0 nM
[3] = test system: Phosphatidylinositol 4,5-bisphosphate 3-kinase catalytic subunit alpha isoform (Homo sapiens), P42336 [I800L]; details: Compound concentration 1000.0 nM
[4] = biological target: Cyclin-dependent kinase-like 5 (Homo sapiens) (UniProt O76039); details: Compound concentration 1000.0 nM
[5] = biological target: Serine/threonine-protein kinase B-raf (Homo sapiens) (UniProt P15056); details: Compound concentration 1000.0 nM
[6] = biological target: Delta-type opioid receptor (Homo sapiens) (UniProt P41143); details: Compound concentration 10.0 uM
[7] = biological target: Interleukin-1 receptor-associated kinase 4 (Homo sapiens) (UniProt Q9NWZ3); details: Compound concentration 1000.0 nM
[8] = biological target: Fibroblast growth factor receptor 2 (Homo sapiens) (UniProt P21802); details: Compound concentration 1000.0 nM
[9] = biological target: Dual specificity mitogen-activated protein kinase kinase 3 (Homo sapiens) (UniProt P46734); details: Compound concentration 1000.0 nM
[10] = biological target: cGMP-dependent protein kinase 1 (Homo sapiens) (UniProt Q13976); details: Compound concentration 1000.0 nM
[11] = biological target: Tyrosine-protein kinase Blk (Homo sapiens) (UniProt P51451); details: Compound concentration 1000.0 nM
[12] = biological target: Bone morphogenetic protein receptor type-2 (Homo sapiens) (UniProt Q13873); details: Compound concentration 1000.0 nM
[13] = biological target: Receptor tyrosine-protein kinase erbB-4 (Homo sapiens) (UniProt Q15303); details: Compound concentration 1000.0 nM
[14] = biological target: Serine/threonine-protein kinase 35 (Homo sapiens) (UniProt Q8TDR2); details: Compound concentration 1000.0 nM
[15] = biological target: Serine/threonine-protein kinase PknB (Mycobacterium tuberculosis) (UniProt P9WI81); details: Compound concentration 1000.0 nM
[16] = biological target: Mitogen-activated protein kinase 10 (Homo sapiens) (UniProt P53779); details: Compound concentration 1000.0 nM
[17] = biological target: Casein kinase I isoform gamma-2 (Homo sapiens) (UniProt P78368); details: Compound concentration 1000.0 nM
[18] = biological target: Phosphatidylinositol 4-kinase beta (Homo sapiens) (UniProt Q9UBF8); details: Compound concentration 1000.0 nM
[19] = test system: Tyrosine-protein kinase ABL1 (Homo sapiens), P00519 [T315I]; details: Compound concentration 1000.0 nM
[20] = biological target: High affinity nerve growth factor receptor (Homo sapiens) (UniProt P04629); details: Compound concentration 1000.0 nM
[21] = biological target: Serine/threonine-protein kinase Sgk1 (Homo sapiens) (UniProt O00141); details: Compound concentration 1000.0 nM
[22] = biological target: Ephrin type-B receptor 3 (Homo sapiens) (UniProt P54753); details: Compound concentration 1000.0 nM
[23] = biological target: Sigma non-opioid intracellular receptor 1 (Homo sapiens) (UniProt Q99720); details: Compound concentration 10.0 uM
[24] = biological target: Calcium-dependent protein kinase 1 (Plasmodium falciparum) (UniProt P62344); details: Compound concentration 1000.0 nM
[25] = biological target: Serine/threonine-protein kinase TAO3 (Homo sapiens) (UniProt Q9H2K8); details: Compound concentration 1000.0 nM
[26] = biological target: Ribosomal protein S6 kinase beta-1 (Homo sapiens) (UniProt P23443); details: Compound concentration 1000.0 nM
[27] = biological target: Serine/threonine-protein kinase Sgk3 (Homo sapiens) (UniProt Q96BR1); details: Compound concentration 1000.0 nM
[28] = biological target: Macrophage colony-stimulating factor 1 receptor (Homo sapiens) (UniProt P07333); details: Compound concentration 1000.0 nM
[29] = biological target: Mitogen-activated protein kinase 15 (Homo sapiens) (UniProt Q8TD08); details: Compound concentration 1000.0 nM
[30] = biological target: Serine/threonine-protein kinase RIO2 (Homo sapiens) (UniProt Q9BVS4); details: Compound concentration 1000.0 nM
[31] = biological target: Activin receptor type-2B (Homo sapiens) (UniProt Q13705); details: Compound concentration 1000.0 nM
[32] = biological target: Tyrosine-protein kinase ABL1 (Homo sapiens) (UniProt P00519); details: Compound concentration 1000.0 nM
[33] = biological target: Ephrin type-A receptor 4 (Homo sapiens) (UniProt P54764); details: Compound concentration 1000.0 nM
[34] = biological target: T1, Muscarinic acetylcholine receptor M2 (Homo sapiens) (UniProt P08172); details: Compound concentration 10.0 uM
T1 sequence (whole entry): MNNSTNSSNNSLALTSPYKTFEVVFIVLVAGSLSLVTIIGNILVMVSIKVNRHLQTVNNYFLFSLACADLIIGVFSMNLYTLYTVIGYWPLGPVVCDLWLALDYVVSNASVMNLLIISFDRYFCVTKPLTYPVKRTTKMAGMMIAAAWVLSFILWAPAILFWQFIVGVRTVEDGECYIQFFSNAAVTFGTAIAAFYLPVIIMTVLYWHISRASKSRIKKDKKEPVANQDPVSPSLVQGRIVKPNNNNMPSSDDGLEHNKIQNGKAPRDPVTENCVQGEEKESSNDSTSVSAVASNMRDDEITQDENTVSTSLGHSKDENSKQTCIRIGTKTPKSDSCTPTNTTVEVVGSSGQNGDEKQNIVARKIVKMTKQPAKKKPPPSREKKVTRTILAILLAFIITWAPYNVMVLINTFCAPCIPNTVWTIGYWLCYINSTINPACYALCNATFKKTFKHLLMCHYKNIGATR

[35] = biological target: BMP-2-inducible protein kinase (Homo sapiens) (UniProt Q9NSY1); details: Compound concentration 1000.0 nM
[36] = biological target: Phosphatidylinositol 5-phosphate 4-kinase type-2 beta (Homo sapiens) (UniProt P78356); details: Compound concentration 1000.0 nM
[37] = biological target: Serine/threonine-protein kinase SIK2 (Homo sapiens) (UniProt Q9H0K1); details: Compound concentration 1000.0 nM
[38] = biological target: Testis-specific serine/threonine-protein kinase 1 (Homo sapiens) (UniProt Q9BXA7); details: Compound concentration 1000.0 nM
[39] = biological target: Serine/threonine-protein kinase N2 (Homo sapiens) (UniProt Q16513); details: Compound concentration 1000.0 nM

Sequence of Mitogen-activated protein kinase 10 (Homo sapiens) (P53779 whole entry, canonical isoform): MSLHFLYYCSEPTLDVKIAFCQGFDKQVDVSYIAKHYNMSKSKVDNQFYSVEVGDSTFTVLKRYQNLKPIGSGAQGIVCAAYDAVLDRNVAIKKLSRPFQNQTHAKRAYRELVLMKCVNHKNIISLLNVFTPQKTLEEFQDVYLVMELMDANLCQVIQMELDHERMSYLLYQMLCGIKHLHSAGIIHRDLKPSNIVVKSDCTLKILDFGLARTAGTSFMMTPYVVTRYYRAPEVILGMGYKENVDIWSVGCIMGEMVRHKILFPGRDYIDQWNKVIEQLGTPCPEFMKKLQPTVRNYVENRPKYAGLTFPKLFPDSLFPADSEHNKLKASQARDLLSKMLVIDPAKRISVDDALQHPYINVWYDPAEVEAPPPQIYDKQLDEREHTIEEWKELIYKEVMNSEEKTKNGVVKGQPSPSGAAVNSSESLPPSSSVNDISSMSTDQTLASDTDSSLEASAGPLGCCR
Sequence of Serine/threonine-protein kinase TAO3 (Homo sapiens) (Q9H2K8 whole entry): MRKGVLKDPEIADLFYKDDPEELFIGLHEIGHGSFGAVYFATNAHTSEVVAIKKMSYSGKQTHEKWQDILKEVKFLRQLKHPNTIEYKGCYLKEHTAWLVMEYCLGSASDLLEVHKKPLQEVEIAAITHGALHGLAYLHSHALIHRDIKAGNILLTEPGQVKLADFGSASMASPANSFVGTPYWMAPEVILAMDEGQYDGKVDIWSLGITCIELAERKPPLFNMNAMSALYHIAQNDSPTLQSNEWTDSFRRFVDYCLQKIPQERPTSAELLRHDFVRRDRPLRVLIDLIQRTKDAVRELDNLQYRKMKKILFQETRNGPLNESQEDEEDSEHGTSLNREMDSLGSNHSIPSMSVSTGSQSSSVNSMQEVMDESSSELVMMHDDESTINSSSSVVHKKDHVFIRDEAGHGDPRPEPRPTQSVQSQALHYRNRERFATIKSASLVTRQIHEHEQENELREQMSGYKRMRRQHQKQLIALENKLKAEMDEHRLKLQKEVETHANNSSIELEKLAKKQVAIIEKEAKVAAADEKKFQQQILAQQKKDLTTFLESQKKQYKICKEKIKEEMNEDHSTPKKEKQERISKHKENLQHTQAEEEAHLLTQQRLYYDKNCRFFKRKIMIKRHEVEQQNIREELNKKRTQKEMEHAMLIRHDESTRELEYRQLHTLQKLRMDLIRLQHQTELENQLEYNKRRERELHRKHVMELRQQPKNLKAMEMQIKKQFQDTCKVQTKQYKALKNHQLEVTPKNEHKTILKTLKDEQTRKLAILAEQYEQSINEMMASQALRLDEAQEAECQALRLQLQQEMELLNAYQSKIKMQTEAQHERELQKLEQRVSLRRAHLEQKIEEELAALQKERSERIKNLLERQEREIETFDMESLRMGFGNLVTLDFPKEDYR
Sequence of Interleukin-1 receptor-associated kinase 4 (Homo sapiens) (Q9NWZ3 whole entry): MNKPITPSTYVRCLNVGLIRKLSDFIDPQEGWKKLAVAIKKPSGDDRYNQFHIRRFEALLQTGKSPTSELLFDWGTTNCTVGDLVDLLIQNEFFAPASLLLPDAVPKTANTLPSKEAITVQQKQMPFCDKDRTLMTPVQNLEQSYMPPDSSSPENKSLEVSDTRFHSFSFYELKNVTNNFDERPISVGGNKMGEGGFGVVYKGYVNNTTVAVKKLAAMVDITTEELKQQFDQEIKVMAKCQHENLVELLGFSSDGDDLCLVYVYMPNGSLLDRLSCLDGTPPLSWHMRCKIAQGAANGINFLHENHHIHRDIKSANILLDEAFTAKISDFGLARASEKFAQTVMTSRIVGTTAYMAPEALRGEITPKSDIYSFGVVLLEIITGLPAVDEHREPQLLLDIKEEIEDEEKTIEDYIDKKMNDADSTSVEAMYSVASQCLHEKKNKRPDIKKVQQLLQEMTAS
Sequence of Serine/threonine-protein kinase 35 (Homo sapiens) (Q8TDR2 whole entry): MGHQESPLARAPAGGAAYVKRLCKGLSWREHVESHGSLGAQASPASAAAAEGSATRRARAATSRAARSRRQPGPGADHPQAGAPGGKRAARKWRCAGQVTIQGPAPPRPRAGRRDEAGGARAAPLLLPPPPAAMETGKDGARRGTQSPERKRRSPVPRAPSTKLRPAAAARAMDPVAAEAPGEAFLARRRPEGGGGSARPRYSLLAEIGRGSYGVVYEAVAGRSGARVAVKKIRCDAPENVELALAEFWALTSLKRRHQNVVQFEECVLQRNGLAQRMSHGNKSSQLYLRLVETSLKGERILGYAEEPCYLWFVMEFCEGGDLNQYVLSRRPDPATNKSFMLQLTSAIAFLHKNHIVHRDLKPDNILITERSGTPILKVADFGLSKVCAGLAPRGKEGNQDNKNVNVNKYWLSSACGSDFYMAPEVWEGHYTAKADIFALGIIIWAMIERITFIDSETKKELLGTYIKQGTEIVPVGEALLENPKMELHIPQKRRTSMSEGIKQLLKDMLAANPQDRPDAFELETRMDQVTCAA
Sequence of Delta-type opioid receptor (Homo sapiens) (P41143 whole entry): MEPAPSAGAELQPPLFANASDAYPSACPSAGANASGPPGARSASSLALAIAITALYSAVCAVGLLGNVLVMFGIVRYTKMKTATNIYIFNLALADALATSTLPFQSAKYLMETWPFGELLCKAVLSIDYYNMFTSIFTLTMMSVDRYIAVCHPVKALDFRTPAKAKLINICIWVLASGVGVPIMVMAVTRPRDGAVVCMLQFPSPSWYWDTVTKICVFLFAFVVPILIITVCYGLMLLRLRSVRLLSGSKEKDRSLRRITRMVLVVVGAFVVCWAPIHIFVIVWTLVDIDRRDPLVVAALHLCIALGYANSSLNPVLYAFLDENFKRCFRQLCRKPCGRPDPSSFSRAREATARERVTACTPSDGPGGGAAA
Sequence of Ephrin type-B receptor 3 (Homo sapiens) (P54753 whole entry): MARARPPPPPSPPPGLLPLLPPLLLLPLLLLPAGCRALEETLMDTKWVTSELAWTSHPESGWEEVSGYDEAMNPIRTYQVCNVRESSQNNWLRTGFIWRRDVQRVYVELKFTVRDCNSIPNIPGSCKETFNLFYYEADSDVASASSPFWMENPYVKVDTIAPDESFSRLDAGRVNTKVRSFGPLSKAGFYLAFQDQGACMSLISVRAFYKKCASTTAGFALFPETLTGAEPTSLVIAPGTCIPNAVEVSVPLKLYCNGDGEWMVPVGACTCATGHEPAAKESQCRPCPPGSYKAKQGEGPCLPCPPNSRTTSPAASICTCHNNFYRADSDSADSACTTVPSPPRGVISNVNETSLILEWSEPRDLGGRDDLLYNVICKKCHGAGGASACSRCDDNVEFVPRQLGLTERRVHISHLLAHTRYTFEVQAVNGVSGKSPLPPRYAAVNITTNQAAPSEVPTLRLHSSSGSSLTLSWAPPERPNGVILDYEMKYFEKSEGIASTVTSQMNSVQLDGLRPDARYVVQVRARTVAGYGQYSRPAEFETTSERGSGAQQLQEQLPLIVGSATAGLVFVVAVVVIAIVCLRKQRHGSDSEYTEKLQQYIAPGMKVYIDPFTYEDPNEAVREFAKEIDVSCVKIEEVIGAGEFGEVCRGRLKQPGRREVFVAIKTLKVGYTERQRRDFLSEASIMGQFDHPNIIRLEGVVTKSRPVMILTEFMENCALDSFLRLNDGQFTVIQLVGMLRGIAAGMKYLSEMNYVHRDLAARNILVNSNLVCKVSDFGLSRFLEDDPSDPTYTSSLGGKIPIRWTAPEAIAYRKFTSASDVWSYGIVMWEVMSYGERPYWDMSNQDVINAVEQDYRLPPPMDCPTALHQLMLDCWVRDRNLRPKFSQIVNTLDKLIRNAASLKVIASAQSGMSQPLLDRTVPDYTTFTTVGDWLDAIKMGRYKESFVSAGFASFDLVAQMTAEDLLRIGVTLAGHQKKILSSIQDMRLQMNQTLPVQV
Sequence of Calcium-dependent protein kinase 1 (Plasmodium falciparum) (P62344 2-524 limits assumed): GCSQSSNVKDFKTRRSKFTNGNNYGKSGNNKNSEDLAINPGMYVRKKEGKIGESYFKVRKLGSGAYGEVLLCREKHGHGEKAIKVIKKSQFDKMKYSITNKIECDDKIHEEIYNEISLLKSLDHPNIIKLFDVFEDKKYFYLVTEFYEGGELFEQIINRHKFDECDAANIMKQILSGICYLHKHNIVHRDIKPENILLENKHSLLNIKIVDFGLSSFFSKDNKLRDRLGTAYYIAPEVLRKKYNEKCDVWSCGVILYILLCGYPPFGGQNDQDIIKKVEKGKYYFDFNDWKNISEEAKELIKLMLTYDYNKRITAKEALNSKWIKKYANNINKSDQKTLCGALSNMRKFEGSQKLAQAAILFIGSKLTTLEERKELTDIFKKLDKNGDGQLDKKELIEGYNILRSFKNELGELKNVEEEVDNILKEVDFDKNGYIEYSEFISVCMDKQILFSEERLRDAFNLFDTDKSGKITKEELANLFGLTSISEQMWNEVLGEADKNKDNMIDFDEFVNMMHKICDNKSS
Sequence of Mitogen-activated protein kinase 15 (Homo sapiens) (Q8TD08 whole entry): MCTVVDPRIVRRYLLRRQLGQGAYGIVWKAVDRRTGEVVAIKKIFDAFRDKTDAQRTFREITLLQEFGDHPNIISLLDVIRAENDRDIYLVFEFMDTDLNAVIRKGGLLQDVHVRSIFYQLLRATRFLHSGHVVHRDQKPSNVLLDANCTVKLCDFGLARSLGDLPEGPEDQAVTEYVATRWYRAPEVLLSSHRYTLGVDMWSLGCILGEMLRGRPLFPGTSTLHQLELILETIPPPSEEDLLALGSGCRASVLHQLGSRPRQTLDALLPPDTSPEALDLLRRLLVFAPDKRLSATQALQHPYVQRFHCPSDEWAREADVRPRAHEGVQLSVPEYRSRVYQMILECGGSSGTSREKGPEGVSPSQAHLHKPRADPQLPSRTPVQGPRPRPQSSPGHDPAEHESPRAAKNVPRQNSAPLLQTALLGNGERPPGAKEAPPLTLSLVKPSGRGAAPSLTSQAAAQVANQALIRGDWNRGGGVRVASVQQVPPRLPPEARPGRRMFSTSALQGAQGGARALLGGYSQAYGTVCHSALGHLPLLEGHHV
Sequence of Sigma non-opioid intracellular receptor 1 (Homo sapiens) (Q99720 whole entry): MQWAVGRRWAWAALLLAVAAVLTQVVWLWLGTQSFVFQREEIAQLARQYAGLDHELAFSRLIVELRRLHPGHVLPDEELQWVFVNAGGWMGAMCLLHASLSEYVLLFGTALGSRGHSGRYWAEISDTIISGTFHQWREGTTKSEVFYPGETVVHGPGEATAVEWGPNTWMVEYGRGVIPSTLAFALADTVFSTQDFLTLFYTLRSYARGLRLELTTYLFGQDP

NS(=O)(=O)c1cc(NC(=O)Cc2ccccc2)ccc1Oc1cccc(Cl)c1 [BAY-1797]
inactive: residual activity [1] 77% | residual activity [2] 100% | residual activity [3] 82% | residual activity [4] 83% | residual activity [5] 96% | inhibition [6] 20.5% | residual activity [7] 91% | residual activity [8] 61% | residual activity [9] 83% | residual activity [10] 100% | residual activity [11] 68% | residual activity [12] 73% | residual activity [13] 56% | residual activity [14] 99% | residual activity [15] 89% | residual activity [16] 89% | residual activity [17] 100% | residual activity [18] 55% | residual activity [19] 88% | residual activity [20] 73% | residual activity [21] 87% | residual activity [22] 94% | inhibition [23] -8.2% | residual activity [24] 91% | residual activity [25] 75% | residual activity [26] 69% | residual activity [27] 83% | residual activity [28] 51% | residual activity [29] 68% | residual activity [30] 100% | residual activity [31] 75% | residual activity [32] 78% | residual activity [33] 97% | inhibition [34] -8.33% | residual activity [35] 94% | residual activity [36] 89% | residual activity [37] 100% | residual activity [38] 100% | residual activity [39] 90%

NS(=O)(=O)c1cc(NC(=O)C2(c3ccccc3Cl)CC2)ccc1Oc1cccc(Cl)c1 [BAY-207]
inactive: residual activity [1] 100% | residual activity [2] 100% | residual activity [3] 100% | residual activity [4] 95% | residual activity [5] 71% | inhibition [6] 41.6% | residual activity [7] 61% | residual activity [8] 100% | residual activity [9] 84% | residual activity [10] 91% | residual activity [11] 100% | residual activity [12] 100% | residual activity [13] 75% | residual activity [14] 94% | residual activity [15] 90% | residual activity [16] 100% | residual activity [17] 82% | residual activity [18] 75% | residual activity [19] 75% | residual activity [20] 100% | residual activity [21] 100% | residual activity [22] 62% | inhibition [23] 18.6% | residual activity [24] 89% | residual activity [25] 100% | residual activity [26] 81% | residual activity [27] 90% | residual activity [28] 100% | residual activity [29] 65% | residual activity [30] 89% | residual activity [31] 90% | residual activity [32] 64% | residual activity [33] 100% | inhibition [34] 2.03% | residual activity [35] 74% | residual activity [36] 62% | residual activity [37] 100% | residual activity [38] 100% | residual activity [39] 83%
